Measurements: patent US20190169181A1, “FUMAGILLOL COMPOUNDS AND METHODS OF MAKING AND USING SAME” (Zafgen, Inc., priority 2016, published 2019)
Counter-ions that a name gives are not always drawn.

Columns and labels:
recombinant human MetAP2 = target: T1, recombinant human MetAP2 (Homo sapiens, UniProt P50579); assay: Recombinant human MetAP2 enzyme inhibition assay (MAS peptide / amino acid oxidase / Amplex Ultrared readout); format: biochemical; conditions: Flag tagged human recombinant MetAP2, 25 minutes at 25° C.
T1 construct: Flag; made in house
Experimental: Compounds are tested for their capacity to inhibit recombinant human MetAP2 activity using the following assay.
Flag tagged Human recombinant MetAP2 expressed and isolated for use as the enzyme source. 10 mM stock solutions of compounds were prepared in 100% DMSO and further diluted in 100% DMSO required concentration to 1 mM stocks. The stock compound solutions and DMSO vehicle controls were diluted to target final compound concentrations using assay buffer to a final concentration of 50 mM HEPES containing 100 mM NaCl, pH adjusted to 7.5. The MAS peptide was formulated to a 7.5 mM stock in distilled water and prior to use further diluted 1:4. […] 40 μl of enzyme was mixed with 100 μl of MnCl2 then further diluted in assay buffer to a final concentration of 16 μg/ml. To test for compound effect on MetAP2 enzyme activity, 5 μl of test compound, 10 μl of MAS substrate/amino acid oxidase mixture, 10 μl of MetAP2 was added to test wells in a 384 well black plate with blank wells containing no enzyme, replaced with 10 μl of assay buffer. All compounds were tested in duplicate on two occasions on the same day.
The plate was sealed with a TopSeal A cover and mixed briefly on an orbital mixer at 900 rpm. The plate was incubated for a further 25 minutes at 25° C. A 5× stock of Amplex buffer was prepared (0.25 M sodium phosphate, pH 7.4) and stored at 4° C. […] Horse radish peroxidase was diluted in […] of Amplex buffer, 100 μl of this was combined with 50 μl of Amplex Ultrared in […] of 1× Amplex buffer to generate sufficient detection reagent for a 384 well plate. 25 μl detection reagent was added to each well of the test plate, which was re-sealed and mixed briefly on an orbital shaker. The plate was transferred to an Envision Multi-label reader and RFU measured corresponding to excitation 531 nm and emission 595 nm. At the end of the MetAP2 incubation 25 μl Amplex/HRP mixture per well was added and the plate read plate on a plate reader.

[1] = test system: Diet Induced Obese (DIO) C57BL/6 mice; assay: 10 day DIO mouse model, weight loss vs. vehicle; format: in vivo; conditions: 240 h; for inhibition in vivo at 0.3 mg/kg: 0.3 mpk sc once a day for 10 days; for inhibition in vivo at 1 mg/kg: 1.0 mpk sc once a day for 10 days
Text: The objective of this study design was to investigate the efficacy of disclosed compounds in a 10 day DIO mouse model. Effects on body weight, food intake, hematology and blood chemistry were the primary readouts of this study design. Male, Diet Induced Obese (DIO) C57BL/6 mice, 19-21 weeks of age (13-15 weeks on high fat diet) were ordered from a certified vendor and upon receipt were housed on irradiated corncob bedding in micro-isolator cages on a 12-hour light-dark cycle (0700-1900) at 68-74° F. and 30-70% humidity. Mice were fed Research Diets D12492 (60% Kcal fat, 20% Kcal carbohydrate and 20% protein) and provided water ad libitum. DIO mice were received and housed in the facility for approximately two weeks prior to the start of test article administration. On Day −4 or −3, mice were randomized into study groups based on body weight and body weights were continued to be recorded daily for the duration of the study. Daily food intake was assessed starting on Study Day −2 by weighing of the food with hopper together to avoid loss of food in transfer.
Compounds were formulated into a 100% DMSO stock (at 9 mg/mL) prior to the start, and further diluted into the target working concentration using the vehicle of 10% DMSO in water. Prior to test article administration, starting on Day −3 a dosing acclimation occurred with all animals receiving a subcutaneous injection of vehicle (10% DMSO) only for 3 days. Starting on Day 1, test compounds or vehicle were administered based on individual body weight, subcutaneously, once a day for 10 days. All mice were sacrificed on Day 11, 24 hours following the final dosing on Day 10. After sacrifice, whole blood was collected and analyzed for hematology and blood chemistry parameters.
Compounds were tested for weight loss vs. vehicle at 0.3 and 1.0 mpk sc (mg per kg animal weight delivered subcutaneously), and the results are shown in Table 2 below.

T1 sequence (P50579 whole entry): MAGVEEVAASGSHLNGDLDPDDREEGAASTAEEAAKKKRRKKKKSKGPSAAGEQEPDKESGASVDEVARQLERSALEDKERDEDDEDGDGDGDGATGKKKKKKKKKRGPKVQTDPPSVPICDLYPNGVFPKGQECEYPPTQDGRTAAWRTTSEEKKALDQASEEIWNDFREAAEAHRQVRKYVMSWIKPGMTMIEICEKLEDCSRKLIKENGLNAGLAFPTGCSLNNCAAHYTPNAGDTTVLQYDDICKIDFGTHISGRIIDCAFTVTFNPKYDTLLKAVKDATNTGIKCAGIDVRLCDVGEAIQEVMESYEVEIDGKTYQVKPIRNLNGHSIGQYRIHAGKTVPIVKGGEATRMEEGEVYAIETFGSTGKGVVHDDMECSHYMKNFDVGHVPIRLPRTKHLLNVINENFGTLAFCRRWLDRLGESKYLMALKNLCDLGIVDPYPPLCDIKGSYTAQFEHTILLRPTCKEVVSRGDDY

| IC50 (recombinant human MetAP2) | SMILES | inhibition in vivo at 0.3 mg/kg [1] | inhibition in vivo at 1 mg/kg [1] |
| --- | --- | --- | --- |
| 50 to 500 nM | CO[C@@H]1[C@H](OC(=O)N[C@@H](c2noc(=O)[nH]2)C(C)C)CC[C@]2(CO2)[C@H]1[C@@]1(C)O[C@@H]1CC=C(C)C [Example 11, (3R,4S,5S,6R)-5-methoxy-4-((2R,3R)-2-methyl-3-(3-methylbut-2-enyl)oxiran-2-yl)-1-oxaspiro[2.5]octan-6-yl (R)-2-methyl-1-(5-oxo-4,5-dihydro-1,2,4-oxadiazol-3-yl)propylcarbamate] | -1.3% | 6.6% |
| 50 to 500 nM | CNc1nnc(C[C@H](NC(=O)O[C@@H]2CC[C@]3(CO3)[C@@H]([C@@]3(C)O[C@@H]3CC=C(C)C)[C@@H]2OC)C(C)C)s1 [Example 34, (3R,4S,5S,6R)-5-methoxy-4-((2R,3R)-2-methyl-3-(3-methylbut-2-enyl)oxiran-2-yl)-1-oxaspiro[2.5]octan-6-yl (S)-3-methyl-1-(5-(methylamino)-1,3,4-thiadiazol-2-yl)butan-2-ylcarbamate] | 3.4% | – |
| < 50 nM | CO[C@@H]1[C@H](OC(=O)N[C@H](c2nnc(N)o2)C(C)C)CC[C@]2(CO2)[C@H]1[C@@]1(C)O[C@@H]1CC=C(C)C [Example 1, (3R,4S,5S,6R)-5-methoxy-4-((2R,3R)-2-methyl-3-(3-methylbut-2-enyl)oxiran-2-yl)-1-oxaspiro[2.5]octan-6-yl (S)-1-(5-amino-1,3,4-oxadiazol-2-yl)-2-methylpropylcarbamate] | 2.6% | 2.1% |
| 50 to 500 nM | CNc1nnc([C@H](NC(=O)O[C@@H]2CC[C@]3(CO3)[C@@H]([C@@]3(C)O[C@@H]3CC=C(C)C)[C@@H]2OC)C(C)C)o1 [Example 3, (3R,5S,6R)-5-methoxy-4-((2R,3R)-2-methyl-3-(3-methylbut-2-enyl)oxiran-2-yl)-1-oxaspiro[2.5]octan-6-yl (R)-2-methyl-1-(5-(methylamino)-1,3,4-oxadiazol-2-yl)propylcarbamate] | 1.1% | – |
| < 50 nM | CO[C@@H]1[C@H](OC(=O)N[C@H](c2c[nH]nn2)C(C)C)CC[C@]2(CO2)[C@H]1[C@@]1(C)O[C@@H]1CC=C(C)C [Example 21, (3R,4S,5S,6R)-5-methoxy-4-((2R,3R)-2-methyl-3-(3-methylbut-2-enyl)oxiran-2-yl)-1-oxaspiro[2.5]octan-6-yl (S)-2-methyl-1-(1H-1,2,3-triazol-4-yl)propylcarbamate] | – | – |

Second part, the compound before the results:

| SMILES | IC50 (recombinant human MetAP2) | inhibition in vivo at 0.3 mg/kg [1] | inhibition in vivo at 1 mg/kg [1] |
| --- | --- | --- | --- |
| CO[C@@H]1[C@H](OC(=O)N[C@H](c2ccc(N3CCOCC3)nc2)C(C)C)CC[C@]2(CO2)[C@H]1[C@@]1(C)O[C@@H]1CC=C(C)C [Example 26, (3R,4S,5S,6R)-5-methoxy-4-((2R,3R)-2-methyl-3-(3-methylbut-2-enyl)oxiran-2-yl)-1-oxaspiro[2.5]octan-6-yl (S)-2-methyl-1-(6-morpholinopyridin-3-yl)propylcarbamate] | 50 to 500 nM | 7.2% | – |
| CO[C@@H]1[C@H](OC(=O)/C=C/c2ccc(OCCN(C)C)cc2)CC[C@]2(CO2)[C@H]1[C@@]1(C)O[C@@H]1CC=C(C)C [A, [(3R,6R,7S,8S)-7-methoxy-8-[(2R,3R)-2-methyl-3-(3-methylbut-2-enyl)oxiran-2-yl]-2-oxaspiro[2.5]octan-6-yl] (E)-3-[4-[2-(dimethylamino)ethoxy]phenyl]prop-2-enoate, reference compound] | – | 20% | 18% |
| CO[C@@H]1[C@H](OC(=O)N[C@H](c2cn(C[C@@H]3CCN(CC(F)F)C3)cn2)C(C)C)CC[C@]2(CO2)[C@H]1[C@@]1(C)O[C@@H]1CC=C(C)C [Example 19, (3R,4S,5S,6R)-5-methoxy-4-((2R,3R)-2-methyl-3-(3-methylbut-2-enyl)oxiran-2-yl)-1-oxaspiro[2.5]octan-6-yl (S)-1-(1-(((R)-1-(2,2-difluoroethyl)pyrrolidin-3-yl)methyl)-1H-imidazol-4-yl)-2-methylpropylcarbamate] | 50 to 500 nM | 1.9% | – |
| CO[C@@H]1[C@H](OC(=O)N[C@H](c2cn(CC(C)C)cn2)C(C)C)CC[C@]2(CO2)[C@H]1[C@@]1(C)O[C@@H]1CC=C(C)C [Example 42, (3R,4S,5S,6R)-5-methoxy-4-((2R,3R)-2-methyl-3-(3-methylbut-2-en-1-yl)oxiran-2-yl)-1-oxaspiro[2.5]octan-6-yl ((S)-1-(1-isobutyl-1H-imidazol-4-yl)-2-methylpropyl)carbamate] | < 50 nM | 10% | – |
| CO[C@@H]1[C@H](OC(=O)N[C@H](Cc2nnc(N)s2)C(C)C)CC[C@]2(CO2)[C@H]1[C@@]1(C)O[C@@H]1CC=C(C)C [Example 36, (3R,4S,5S,6R)-5-methoxy-4-((2R,3R)-2-methyl-3-(3-methylbut-2-en-1-yl)oxiran-2-yl)-1-oxaspiro[2.5]octan-6-yl ((R)-1-(5-amino-1,3,4-thiadiazol-2-yl)-3-methylbutan-2-yl)carbamate] | 50 to 500 nM | – | 2% |
| CO[C@@H]1[C@H](OC(=O)N[C@H](c2ccc(N3CCC3)nc2)C(C)C)CC[C@]2(CO2)[C@H]1[C@@]1(C)O[C@@H]1CC=C(C)C [Example 41, (3R,4S,5S,6R)-5-methoxy-4-((2R,3R)-2-methyl-3-(3-methylbut-2-enyl)oxiran-2-yl)-1-oxaspiro[2.5]octan-6-yl ((S)-1-(6-(azetidin-1-yl)pyridin-3-yl)-2-methylpropyl)carbamate] | < 50 nM | 11.7% | – |
| CO[C@@H]1[C@H](OC(=O)N[C@H](c2cn(C[C@H]3CCN(C)C3)c(C)n2)C(C)C)CC[C@]2(CO2)[C@H]1[C@@]1(C)O[C@@H]1CC=C(C)C [Example 24, (3R,4S,5S,6R)-5-methoxy-4-((2R,3R)-2-methyl-3-(3-methylbut-2-enyl)oxiran-2-yl)-1-oxaspiro[2.5]octan-6-yl (S)-2-methyl-1-(2-methyl-1-(((S)-1-methylpyrrolidin-3-yl)methyl)-1H-imidazol-4-yl)propylcarbamate] | 50 to 500 nM | 8.2% | – |
| CO[C@@H]1[C@H](OC(=O)N[C@H](c2nccn2C[C@H]2CCCN2C)C(C)C)CC[C@]2(CO2)[C@H]1[C@@]1(C)O[C@@H]1CC=C(C)C [Example 5, (3R,4S,5S,6R)-5-methoxy-4-((2R,3R)-2-methyl-3-(3-methylbut-2-enyl)oxiran-2-yl)-1-oxaspiro[2.5]octan-6-yl (S)-2-methyl-1-(1-(((R)-1-methylpyrrolidin-2-yl)methyl)-1H-imidazol-2-yl)propylcarbamate formate] | 50 to 500 nM | 3.1% | – |
| CO[C@@H]1[C@H](OC(=O)N[C@H](c2cn(C[C@@H]3CCCN3C)cn2)C(C)C)CC[C@]2(CO2)[C@H]1[C@@]1(C)O[C@@H]1CC=C(C)C [Example 14, (3R,4S,5S,6R)-5-methoxy-4-((2R,3R)-2-methyl-3-(3-methylbut-2-enyl)oxiran-2-yl)-1-oxaspiro[2.5]octan-6-yl (S)-2-methyl-1-(1-(((S)-1-methylpyrrolidin-2-yl)methyl)-1H-imidazol-4-yl)propylcarbamate formate] | < 50 nM | 5.8% | 10.3% |
